According to patent publication US8119624B2, “Fused phenyl amido heterocyclic compounds” (Pfizer Inc., priority 2006, dated 2012):
Read-outs that look alike come from different tables or passages of the source.

Molecular target: T1, Full-length glucokinase (beta cell isoform) (Homo sapiens, UniProt P35557)
T1 construct: Full-length glucokinase (beta cell isoform) was His-tagged at N-terminus; His tag (N); made in house
T1 sequence (P35557 1-465): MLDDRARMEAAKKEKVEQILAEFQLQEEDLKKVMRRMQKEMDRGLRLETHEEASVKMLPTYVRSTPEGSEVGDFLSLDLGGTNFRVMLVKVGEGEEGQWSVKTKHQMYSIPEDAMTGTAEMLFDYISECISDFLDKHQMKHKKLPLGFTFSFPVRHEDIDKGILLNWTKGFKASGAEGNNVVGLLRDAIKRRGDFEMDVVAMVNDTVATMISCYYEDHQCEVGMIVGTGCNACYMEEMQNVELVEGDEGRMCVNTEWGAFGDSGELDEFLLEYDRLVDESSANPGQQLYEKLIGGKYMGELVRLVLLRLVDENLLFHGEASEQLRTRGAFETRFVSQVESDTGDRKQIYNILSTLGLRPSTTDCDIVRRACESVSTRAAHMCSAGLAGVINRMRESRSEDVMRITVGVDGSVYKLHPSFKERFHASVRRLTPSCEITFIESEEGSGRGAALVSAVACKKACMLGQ
Assay: Glucokinase biochemical assay (PK/LDH-coupled, NADH depletion at 340 nm): % activation, EC50, % max activation
Conditions: 5 mM glucose; for EC50: read-out: EC50; for activation at 10 µM: read-out: % Activation at 10 uM; for Emax: read-out: % Max Activation
Procedure, shortened: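 Activation expressed as (Va/Vo−1)×100, where initial rates with and without compound come from NADH depletion at 340 nm over 200–900 s. Enzyme is His-tagged human beta-cell GK, full length, run at room temperature in HEPES buffer with 1 mM ATP and 5 mM glucose. DMSO 1%.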

[1] = compound at 10 uM, 1 mM ATP, room temperature
[2] = 10 uM compound, % Activation=(Va/Vo−1)×100

Row | Compound | EC50 (1 mM ATP, room temperature) [nM] | activation at 10 µM [1] [%] | activation at 10 µM [2] [%] | EC50 (GK activation) [nM] | Emax (fitted maximum activation) [%] | % Activation at 10 uM [2] [%] | % Max Activation (fitted maximum activation) [%]
1 | COCCN1Cc2c(Oc3ccc(S(C)(=O)=O)cc3)cc(C(=O)Nc3ccc(C)cn3)cc2C1=O [Example 387, 2-(2-Methoxyethyl)-N-(5-methylpyridin-2-yl)-7-(4-(methylsulfonyl)-phenoxy)-3-oxoisoindoline-5-carboxamide] | > 10000 | 42.9 |  |  |  |  | 
2 | Cc1ccc(NC(=O)c2cc(Oc3ccc(S(C)(=O)=O)cc3)cc3c2CCO3)nc1 [Example 6, 6-(4-Methanesulfonyl-phenoxy)-2,3-dihydrobenzofuran-4-carboxylic acid(5-methyl-pyridin-2-yl)-amide] |  |  | 87.6 | 9600 | 123 |  | 
3 | COCc1cc2c(Oc3ccc(S(C)(=O)=O)cc3)cc(C(=O)Nc3cc(C)on3)cc2o1 [Example 315, 2-(Methoxymethyl)-N-(5-methylisoxazol-3-yl)-4-[4-(methylsulfonyl)phenoxy]-1-benzofuran-6-carboxamide] |  |  | 11.9 |  |  |  | 
4 | Cn1ccc(NC(=O)c2cc(Oc3ccc(S(C)(=O)=O)cc3)c3c(c2)OC(CF)C3)n1 (centres unmarked) [Example 224, 2-Fluoromethyl-4-(4-methanesulfonyl-phenoxy)-2,3-dihydro-benzofuran-6-carboxylic acid (1-methyl-1H-pyrazol-3-yl)-amide] |  |  | 142 | 2300 | 160 |  | 
5 | COCC1Cc2c(Oc3ccc(C(=O)N(C)C)cc3)cc(C(=O)Nc3ccn(C)n3)cc2O1 (single isomer, unassigned; (+)) [Example 212, (+)-4-(4-Dimethylcarbamoyl-phenoxy)-2-methoxymethyl-2,3-dihydro-benzofuran-6-carboxylic acid (1-methyl-1H-pyrazol-3-yl)-amide] |  |  |  | 2600 |  | 111 | 144
6 | Cc1ccc(NC(=O)c2cc(Oc3ccc(S(C)(=O)=O)cc3)c3c(c2)C(=O)N(C(C)C)C3)nc1 [Example 383, 2-Isopropyl-N-(5-methylpyridin-2-yl)-7-(4-(methylsulfonyl)-phenoxy)-3-oxoisoindoline-5-carboxamide] |  | 32.6 |  |  |  |  | 
7 | CS(=O)(=O)c1ccc(Oc2cc(C(=O)Nc3ccccn3)cc3scnc23)cc1 [Example 372, 4-[4-(Methylsulfonyl)phenoxy]-N-pyridin-2-yl-1,3-benzothiazole-6-carboxamide] |  |  | 29.3 |  |  |  | 
8 | CCOCC1Cc2c(OC(C)C)cc(C(=O)Nc3ccn(C)n3)cc2O1 (centres unmarked) [Example 217, 2-Ethoxymethyl-4-isopropoxy-2,3-dihydro-benzofuran-6-carboxylic acid (1-methyl-1H-pyrazol-3-yl)-amide] |  |  | 5.3 |  |  |  | 
9 | COc1cc(C(=O)Nc2ccc(C)cn2)c2nc(C)[nH]c2c1 [Example 373, 6-Methoxy-2-methyl-1H-benzoimidazole-4-carboxylic acid(5-methyl-pyridin-2-yl)-amide] |  |  | -1.1 |  |  |  | 
10 | CCc1cc2c(Oc3ccc(S(C)(=O)=O)cc3)cc(C(=O)Nc3ccn(C)n3)cc2o1 [Example 275, 2-Ethyl-N-(1-methyl-1H-pyrazol-3-yl)-4-[4-(methylsulfonyl)-phenoxy]-1-benzofuran-carboxamide] |  |  | 211 | 2600 | 210 |  | 
11 | Cn1ccc(NC(=O)c2cc(Oc3ccc(S(C)(=O)=O)cc3)c3c(c2)OC(CO)C3)n1 (centres unmarked) [Example 200, 2-Hydroxymethyl-4-(4-methanesulfonyl-phenoxy)-2,3-dihydro-benzofuran-6-carboxylic acid (1-methyl-1H-pyrazol-3-yl)-amide] |  |  | 113 | 2900 | 147 |  | 
12 | C[C@@H](Cc1ccccc1)Oc1cc(C(=O)Nc2ccn(C)n2)cc2ccoc12 [Example 336, 7-[(1S)-1-Methyl-2-phenylethoxy]-N-(1-methyl-1H-pyrazol-3-yl)-1-benzofuran-5-carboxamide] |  |  | 8.4 |  |  |  | 
13 | C[C@@H](Cc1ccccc1)Oc1cc(C(=O)Nc2ccn(C)n2)cc2c1CC(C)(C)O2 [Example 78, 2,2-Dimethyl-4-((S)-1-methyl-2-phenyl-ethoxy)-2,3-dihydro-benzofuran-6-carboxylic acid (1-methyl-1H-pyrazol-3-yl)-amide] |  |  | 139 | 1470 | 149 |  | 
14 | Cc1cc2c(Oc3ccc(S(C)(=O)=O)cc3)cc(C(=O)Nc3ccc(C#N)cn3)cc2o1 [Example 261, N-(5-cyanopyridin-2-yl)-2-methyl-4-(4-(methylsulfonyl)-phenoxy)benzofuran-6-carboxamide] |  |  | 58.8 | 7900 | 81 |  | 

Continued by falling EC50 (GK activation), values first:

Row | EC50 (1 mM ATP, room temperature) [nM] | activation at 10 µM [1] [%] | activation at 10 µM [2] [%] | EC50 (GK activation) [nM] | Emax (fitted maximum activation) [%] | % Activation at 10 uM [2] [%] | % Max Activation (fitted maximum activation) [%] | Compound
15 |  |  | 123 | 1300 | 110 |  |  | CCOc1ccc(NC(=O)c2cc(Oc3ccc(S(=O)(=O)N4CCC4)cc3)c3cc(C)oc3c2)nc1 [Example 302, 4-(4-(Azetidin-1-ylsulfonyl)phenoxy)-N-(5-ethoxypyridin-2-yl)-2-methyl-benzofuran-6-carboxamide]
16 |  |  | 112 | 680 | 127 |  |  | Cn1ccc(NC(=O)c2cc(Oc3cc(F)c(C(=O)N4CCC4)c(F)c3)c3c(c2)OC(C(F)F)C3)n1 (centres unmarked) [Example 223, 4-[4-(Azetidine-1-carbonyl)-3,5-difluoro-phenoxy]-2-difluoromethyl-2,3-dihydro-benzofuran-6-carboxylic acid (1-methyl-1H-pyrazol-3-yl)-amide]
17 |  |  | 50.4 | 330 | 56 |  |  | Cc1ccc(NC(=O)c2cc(Oc3ccc(C(=O)N(C)C)c(F)c3)c3ccsc3c2)nc1 [Example 358, 4-(4-(Dimethylcarbamoyl)-3-fluorophenoxy)-N-(5-methylpyridin-2-yl)benzo[b]thiophene-6-carboxamide]
18 |  |  | 91.8 | 330 | 95 |  |  | Cc1ccc(NC(=O)c2cc(Oc3ccc(S(C)(=O)=O)cc3)c3c(c2)OC(C)(CO)C3)nc1 (centres unmarked) [Example 230, 2-Hydroxymethyl-4-(4-methanesulfonyl-phenoxy)-2-methyl-2,3-dihydro-benzofuran-6-carboxylic acid (5-methyl-pyridin-2-yl)-amide]
19 |  |  | 193 | 260 | 189 |  |  | Cn1ccc(NC(=O)c2cc(Oc3ccc(C(=O)NCCF)c(F)c3)c3c(c2)OC(C)(C)C3)n1 [Example 75, 4-[3-Fluoro-4-(2-fluoro-ethylcarbamoyl)-phenoxy]-2,2-dimethyl-2,3-dihydro-benzofuran-6-carboxylic acid(1-methyl-1H-pyrazol-3-yl)-amide]
20 |  |  | 113 | 210 | 132 |  |  | Cc1cc2c(Oc3ccc(S(=O)(=O)N4CCC4)cc3)cc(C(=O)Nc3cnn(C)n3)cc2o1 [Example 298, 4-(4-(Azetidin-1-ylsulfonyl)phenoxy)-2-methyl-N-(2-methyl-2H-1,2,3-triazol-4-yl)benzofuran-6-carboxamide]
21 |  |  | 122 | 200 | 132 |  |  | Cc1cc2c(Oc3ccc(S(=O)(=O)N4CCC4)cc3)cc(C(=O)Nc3ccn(C)n3)cc2o1 [Example 294, 4-(4-(Azetidin-1-ylsulfonyl)phenoxy)-2-methyl-N-(1-methyl-1H-pyrazol-3-yl)benzofuran-6-carboxamide]
22 |  |  | 14.9 | 170 | 3.5 |  |  | Cc1ccc(NC(=O)c2cc(Oc3ccc(C(=O)N(C)C)cc3)c3oc(C)nc3c2)nc1 [Example 370, 7-{4-[(Dimethylamino)carbonyl]phenoxy}-2-methyl-N-(5-methylpyridin-2-yl)-1,3-benzoxazole-5-carboxamide]
23 |  |  | 64.4 | 150 | 66 |  |  | CC1(C)Cc2c(OCc3ccccc3)cc(C(=O)Nc3ccc(C(=O)O)cn3)cc2O1 [Example 77, 6-[(4-Benzyloxy-2,2-dimethyl-2,3-dihydro-benzofuran-6-carbonyl)-amino]-nicotinic acid]
24 |  |  | 118 | 100 | 106 |  |  | COCC1(C)Cc2c(Oc3ccc(S(C)(=O)=O)cc3)cc(C(=O)Nc3ccc(C)cn3)cc2O1 (centres unmarked) [Example 231, 4-(4-Methanesulfonyl-phenoxy)-2-methoxymethyl-2-methyl-2,3-dihydro-benzofuran-6-carboxylic acid (5-methyl-pyridin-2-yl)-amide]
25 |  |  | 198 | 90 | 147 |  |  | CN(C)C(=O)c1ncc(Oc2cc(C(=O)Nc3ccn(C)n3)cc3c2CC(C)(C)O3)cc1F [Example 178, 5-[2,2-Dimethyl-6-(1-methyl-1H-pyrazol-3-ylcarbamoyl)-2,3-dihydro-benzofuran-4-yloxy]-3-fluoro-pyridine-2-carboxylic acid dimethylamide]
26 |  |  | 201 | 64 | 165 |  |  | Cc1ccc(NC(=O)c2cc(Oc3ccc(S(C)(=O)=O)c(F)c3)c3c(c2)OC(C)(CO)C3)nc1 (centres unmarked) [Example 233, 4-(3-Fluoro-4-methanesulfonyl-phenoxy)-2-hydroxymethyl-2-methyl-2,3-dihydro-benzofuran-6-carboxylic acid (5-methyl-pyridin-2-yl)-amide]
